Where two headings read alike, the source gives them in different places.
Columns and labels:
[1] = tested on: T lymphoblastoid leukemia MOLT-4; assay: Cell growth assay on MOLT-4 cells; assay type: cell-based; conditions: for IC50: Homo sapiens
Method: Compositions were tested on CHOP-resistant G3 NHL cells that had been cultivated in RPMI medium for five days. Prior to assay, the cells were counted by haemocytometer and cell concentration standardized to 625,000 cells/ml. Test drugs were solubilized in 100% DMSO and then diluted to final assay concentration with 0.1M phosphate buffered saline (PBS) and a final DMSO concentration of 0.5%. Cells were added to assay plates containing the test drugs (rifabutin+148 ng/ml, 74 ng/ml, 37 ng/ml, or 0 ng/ml doxorubicin) and allowed to incubate for 96 hours at 37° C. and 5% CO2. The metabolic dye rezasurin was added to the wells of the assay plate at a final concentration of 20 μg/ml and the plates were incubated for an additional 24 hours. The plates were then read in a BMG Polarstar plate reader at wavelength (573-605) and the data plotted as OD versus increasing dilutions (i.e. decreasing total amounts) of rifabutin derivative concentration.
Additional cell lines used include: ovarian cancer OVCAR-8, T lymphoblastoid leukemia MOLT-4, dexamethasone-resistant multiple myeloma MM.1R, myeloid leukemia cells HL-60, osteosarcoma cells U-2 OS, and myeloma RPMI 8226.

[2] = tested on: G3 CHOP-resistant NHL cells; conditions: fourth study; doxorubicin only group
Method: In a first efficacy study, 6-8 week old female SCID mice (7 mice per treatment arm) were injected subcutaneously on both flanks with 1×10^7 G3 CHOP-resistant NHL cells. Once palpable tumors (about […] size) appeared, therapies (CHOP or CHOP+rifabutin) were started. CHOP was administered at the maximum tolerated dose (cyclophosphamide, 40 mg/kg i.v.; doxorubicin, 3.3 mg/kg i.v.; vincristine, 0.5 mg/kg i.v.; and prednisone, 0.2 mg/kg orally daily for 5 d) weekly for 3 weeks. Rifabutin in an amount of 100 mg/kg was administered on the day of each CHOP treatment and 24-hours later by gavage. Mouse body weight and tumor size were monitored every two days and tumor size measured by caliper. The tumor volume formula (L*W*W)/2 was used to calculate tumor mass.
A second efficacy study was conducted where mice were treated before the appearance of palpable tumors. In that experiment, one week after transplantation of CHOP-resistant G3 cells, one group (7 mice) was treated with CHOP-only and a second group (8 mice) was treated with CHOP+rifabutin.
A third study was conducted in which mice injected with CHOP-resistant G3 cells received reduced dosages of CHOP in combination with 33 mg/kg rifabutin. CHOP+rifabutin was administered weekly beginning one week post-inoculation. Control mice were given no CHOP or rifabutin.
SCID mice were injected with CHOP-resistant G3 cells in the same manner as the first efficacy study above. Treatments began 2 weeks post-inoculation and were administered twice weekly.

[3] = tested on: human ovarian cancer cell line SK-OV-3; assay: SK-OV-3 xenograft efficacy study in SCID mice; assay type: in vivo; conditions: after 19 days treatment; DOX only 3.3 mg/kg i.v. weekly
Method: In a fifth efficacy study, we generated xenografts of the human ovarian cancer cell line SK-OV-3, a cell line considered doxorubicin-resistant, by bilateral subcutaneous (s.c.) injection of 1×10^7 tumor cells to establish localized tumors in 6-8 week old female SCID mice. Using rifabutin co-administered with DOX, in vivo efficacy was assessed. […] Cycles of Dox or Dox+rifabutin were given once a week for 4 cycles. This cyclical dosing scheme of mouse models has precedent in the literature and is intended to mimic the cycles of DOXIL® (Centocor Ortho Biotech Products, LP, Raritan, N.J.) given in the clinic. Rifabutin was administered on the day of each DOX treatment and by gavage. Mouse body weight and tumor size were monitored.

[4] = after administration; cited from earlier work
[5] = tested on: multi-drug resistant ovarian cancer cell line NCI/ADR-RES; assay: Cell growth assay on NCI/ADR-RES cells; assay type: cell-based; conditions: ADR-RES; for IC50: Homo sapiens, NCI/ADR-RES
[6] = tested on: CHOP-sensitive NHL cell line CRL2631; assay: Cell growth assay (resazurin) on CHOP-sensitive CRL2631 NHL cells; assay type: cell-based, human; conditions: CRL2631; for IC50: Homo sapiens
[7] = tested on: lymphoma cell line G3; assay: Cell growth assay (resazurin fluorescence) on CHOP-resistant G3 NHL cells; assay type: cell-based, human; conditions: for IC50: Homo sapiens
Summary of the method: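 CHOP-resistant G3 NHL cells grown five days in RPMI medium were counted by haemocytometer and set to 625,000 cells/ml. They were then added to plates holding test drug, first dissolved in 100% DMSO and diluted in 0.1M PBS to 0.5% final DMSO. Plates incubated 96 hours at 37° C. and 5% CO2. Resazurin at 20 μg/ml was added for a further 24 hours, and plates were read on a BMG Polarstar at 573-605.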

[8] = therapeutic drug alone, read-out: IC50
[9] = therapeutic drug with Rifabutin, read-out: IC50 (μM) with Rifabutin

## COc1cccc2c1C(=O)c1c(O)c3c(c(O)c1C2=O)C[C@@](O)(C(=O)CO)C[C@@H]3O[C@H]1C[C@H](N)[C@H](O)[C@H](C)O1 [Doxorubicin, doxorubicin]
[1]; [8]
  IC50: 0.03 µM
[1]; [9]
  IC50: 0.01 µM
[1]; with vs without Rifabutin
  Fold increase in potency: 3 fold
[2]
  mean lifespan: 34.6
  median lifespan: 33
  times as likely to die before those treated with doxorubicin+RTI-81: 10.37 times
[3]
  average tumor volume: 587 mm^3
[4]
  time of maximal tissue absorption: 48 h
[5]; [8]
  IC50: > 32 µM
[5]; [9]
  IC50: 6.59 µM
[5]; with vs without Rifabutin
  Fold increase in potency: >4.9 fold
[6]; [8]
  IC50: 0.35 µM
[6]; [9]
  IC50: 0.12 µM
[6]; with vs without Rifabutin
  Fold increase in potency: 2.9 fold
[7]; analog alone, lymphoma cell line G3, read-out: IC50
  IC50: 2.36 µM
[7]; therapeutic drug with Rifabutin, G3, read-out: IC50 (μM) with Rifabutin
  IC50: 0.25 µM
[7]; with vs without Rifabutin, G3
  Fold increase in potency: 9.4 fold

Source: patent US20150017673A1, “COMPOSITIONS AND METHODS FOR DRUG-SENSITIZATION OR INHIBITION OF A CANCER CELL” (priority 2012, published 2015)
